# According to patent publication US20100178651A1, “Bifunctional Predictors of Cancer Treatment Sensitivity and Resistance” (priority 2006, published 2010):
# How the values were obtained:
# breast cancer cells = assay: Drug sensitivity of breast cancer cells after down regulation of Tau by siRNA; type: cell-based; details: cancer cells in vitro
# Description: Low expression of Tau is associated with known clinicopathological predictors of response to chemotherapy such as ER-negative status and high nuclear grade. However, in contrast to these predictors that are not treatment regimen-specific, low Tau may predict extreme sensitivity to a particular drug, paclitaxel. Since Tau is a microtubule associated protein, Tau has a mechanistic role in determining cellular response to paclitaxel, which is a microtubule poison.
# The inventors have validated this association at the protein level on an independent set of patients (n=122) using immunohistochemistry. […] Tau partially protects cells from paclitaxel induced apoptosis by reducing paclitaxel binding to tubulin and reducing paclitaxel induced microtubule polymerization. […] As described herein, low levels of Tau mRNA expression as measured by, but not limited to, cDNA microarrays or Tau protein expression detected by immunohistochemistry, are associated with higher rates of pathologic CR to T/FAC pre-operative chemotherapy for stage I-III breast cancer. […] Pathologic CR in this context means complete eradication of the invasive cancer from the breast and lymph nodes by chemotherapy and has consistently been associated with excellent long-term survival that is independent of other tumor characteristics.
# [1] = system: ER-positive breast cancer; assay: 5 years of adjuvant tamoxifen in patients with ER-positive breast cancer: distant relapse; type: in vivo, human; details: for 10-year distant metastasis-free survival: adjuvant tamoxifen
# Description: To examine the value of Tau as predictor of survival after 5 years of adjuvant tamoxifen therapy, we used data provided by the Institut Jules Bordet. This included gene expression and survival data on 267 patients with ER-positive tumors treated with adjuvant tamoxifen. […] In all data sets, ER-status was determined from routine pathological assessment including immunohistochemistry or ER-ligand-binding assay for the older specimens. The cut-off for ER-positivity was 10 fmol/mg protein or >10% positive cells by immunohistochemistry.
# This test was used because of the non-normal distribution of Tau. The prognostic value of Tau in untreated and tamoxifen-treated patients was assessed by examining the association between Tau expression and the occurrence of distant metastases using the Wilcoxon test. To assess if covariates including grade, tumor size and nodal status were associated with Tau levels we performed multivariate linear regression analysis. Kaplan-Meier survival curves were compared using the Log-rank test. In order to generate Kaplan-Meier curves, patients had to be assigned to various Tau expression groups. However, no cut off points have been established previously to assign low or high Tau status to cases based on microarray results. Furthermore, normalized expression values differed between the data sets, particularly for the prognostic data set that used different normalization procedure. In the absence of accepted cut off values and considering the non-normal expression distribution of Tau, we grouped patients by tertiles and quartiles.
# [2] = Tamoxifen treated group (n = 267)
SMILES,change of sensitivity to the drug on down regulation of Tau with siRNA (breast cancer cells),"Metastases within 5 years: No, patients (%) [1, 2]","Metastases within 5 years: Yes, patients (%) [1, 2]",10-year distant metastasis-free survival ([1]; Tau mRNA levels <183) [%],10-year distant metastasis-free survival ([1]; Tau mRNA levels >183) [%]
COc1cccc2c1C(=O)c1c(O)c3c(c(O)c1C2=O)C[C@@](O)(C(=O)CO)C[C@@H]3O[C@H]1C[C@H](N)[C@@H](O)[C@H](C)O1 [epirubicin],not to epirubicin,–,–,–,–
CC(=O)O[C@H]1C(=O)[C@@]2(C)[C@H]([C@H](OC(=O)c3ccccc3)[C@]3(O)C[C@H](OC(=O)[C@H](O)[C@@H](NC(=O)c4ccccc4)c4ccccc4)C(C)=C1C3(C)C)[C@]1(OC(C)=O)CO[C@@H]1C[C@@H]2O [paclitaxel],increases their sensitivity,–,–,–,–
CC/C(=C(\c1ccccc1)c1ccc(OCCN(C)C)cc1)c1ccccc1 [tamoxifen],–,160 (60%),38 (14%),65,78
